Test results as given in patent US20240016775A1, “ANTI-CORONAVIRUS APPLICATION OF POLY ADP RIBOSE POLYMERASE INHIBITOR” (FUKANG (SHANGHAI) HEALTH TECHNOLOGY CO., LTD, priority 2020, published 2024).
“And” between values parts separate entries of the source, which are not always exact repeats. Equal entries are not always repeated. Structures can show the parent of a compound that is named as a salt. Where two headings read alike, the source gives them in different places.

Experiments:
[1] = some healthy subjects, 3 hours after taking the drug; cited from earlier work
[2] = cited from earlier work
[3] = test system: SARS-CoV-2; test: microbe, parasite or virus in culture; assay type: cell-based; details: for Inhibiting rate, %: 3 μM; for inhibition at 3 µM: read-out: Inhibiting rate, %, 3 μM
[4] = rats, oral 54 mg/kg, cited from earlier work
[5] = rats, Male, cited from earlier work
[6] = Body weight of rats, 28 days oral administration and 28 days without; assay type: in vivo, Sprague-Dawley rats; details: oral 20/60/160 mg/kg, then 28 days off
Description: (§1) Sprague-Dawley rats were purchased from Animal Experiment Center of Shanghai, China. The experimental animals were housed in groups in wire cages, with no more than 6 animals per cage. The experimental conditions were good (temperature 25±2° C.; relative humidity 50±20%) and light-dark cycle (12 hours/12 hours). 144 Sprague-Dawley rats were randomized into 4 groups (18 animals/gender/group). CVL218 was administered at doses of 20, 40, 60 and 160 mg/kg. For all groups, 20 rats (10 animals/gender/group) were randomly selected, euthanized on day 28, and sections of various tissues and organs were obtained and frozen. Ten (5/gender/group) animals were euthanized after a 28-day drug-free period, and sections of their tissues and organs were taken and frozen. Six animals (3/gender/group) were euthanized after blood samples were collected. For pharmacokinetics and safety evaluations, the blood concentrations, clinical symptoms, mortality and body weight of animals were examined.

[7] = Tissue distribution study of CVL218 in rats (LC-MS-MS); assay type: in vivo, Sprague-Dawley rats; details: for Tissue concentration, Brain / Tissue concentration, Heart / Tissue concentration, Kidney / Tissue concentration, Liver / Tissue concentration, Lung / Tissue concentration, Spleen / Tissue concentration, Stomach: oral 20 mg/kg
Description: Sprague-Dawley rats were randomized into 3 time-point groups (3 animals/gender/group). At 3, 6 and 8 hours after CVL218 administration, animals were sacrificed, and the brain, heart, lung, liver, spleen, stomach and kidney tissues were collected. The tissue samples were washed with ice-cold physiological saline and weighed after excess liquid was removed with paper towels. After tissue sample solutions were weighed, they were stored at −20±2° C. until the drug concentration was determined by LC-MS-MS.

[8] = Safety study in cynomolgus monkeys (body weight); assay type: in vivo; details: 5/20/80 mg/kg, 28 days, then 28 days off
Description: Healthy male and female monkeys, aged 3-4 years, were purchased from Landao Biotechnology, Guangdong, China. Animals were fed in accordance with the Guide for Care and Use of Laboratory Animals. The animals were randomized (5 animals/gender/group), and were fed with CVL218 via nasogastric at dose levels of 0 (control), 5, 20 and 80 mg/kg. Monkeys were observed twice daily for any changes in viability/mortality and behavior, response to treatment or health status.

[9] = test system: IL-6 production in PBMCs; assay type: cell-based; details: 12 hours
[10] = Pharmacokinetic study of CVL218 in rats; assay type: in vivo, Sprague-Dawley rats
Description: as §1

[11] = test system: SARS-CoV-2
[12] = test system: SARS-CoV-2; test: Time-of-addition assay (duration of action) in Vero E6 cells; assay type: cell-based; details: CVL218 20 μM, remdesivir 10 μM, 14 h after infection
[13] = Cytotoxicity test on Vero-E6 cells (CCK-8); assay type: cell-based; details: African green monkey, 48 h, read-out: CC50 (50% cytotoxic concentration)
Description: (§2) 2.1 Experimental Groups: • 1) Mefuparib hydrochloride (CVL218) group • 2) DMSO control group • 3) Olaparib group • 4) Cell control group: containing only cells, without adding drugs • 5) Blank control group (only medium without cells)
(§3) Mefuparib hydrochloride was obtained from Pukang (Shanghai) Health Technology Co., Ltd., with a purity of >99.0%. It was dissolved in DMSO and then diluted in gradients according to Table 4 below (the maintenance solution was DMEM medium). Serial dilutions were performed for DMSO according to the same dilution gradients.
(§4) Vero-E6 cells were seeded into 96-well culture plates at 1×10^4 cells/well, and cultured in DMEM containing 10% fetal bovine serum for 16 hours to become 80% pellets, then the cell culture medium was aspirated and discarded from each well, the cells were washed once with sterile PBS, and different drugs (200 μl/well) diluted in the cell maintenance solution were added to each well according to the experimental groups, with 3 duplicate wells set up for each group, and then the wells were placed in a 37° C., 5% CO2 incubator for 48 h.
(§5) For the DMSO control group, DMSO diluted with the cell maintenance solution to the corresponding concentration was added, and for the cell control group, 200 μl of the cell maintenance solution was added. For the blank control group, only cell maintenance solution without cells was added.
(§6) 2.3.2 Detection of toxicity of mefuparib hydrochloride and Olaparib on Vero-E6 The cell state was observed and recorded under an inverted microscope, and the toxicity of the drug to Vero-E6 cells was detected according to the operation instructions of the CCK-8 kit: 20 μl of CCK-8 solution was added to all experimental wells and control wells, and the cell culture plate was placed in a 37° C., 5% CO2 incubator for 1 hour, and then its absorbance value at the wavelength of 450 nm was measured using a multifunctional microplate reader.

[14] = test system: Vero-E6 cells; test: Cytotoxicity test on Vero-E6 cells (CCK-8); assay type: cell-based; details: 30 μM
Description: as §2, §3, §4, §5, §6

[15] = Severe acute respiratory syndrome coronavirus 2, Vero C1008, 48 h, Vero-E6, MOI 0.05, 48 h

## CCOC(=O)c1c(CSc2ccccc2)n(C)c2cc(Br)c(O)c(CN(C)C)c12 [Arbidol, arbidol]
[1]
  Heart rate decrease: 2-24 beats/minute
[2]; nausea, diarrhea, dizziness, increased serum transaminases
  Adverse events, share of subjects: about 6.2%
[2]; single oral dose 200 mg
  Peak concentration: 614.1 ± 342.5 ng/mL
[2]; single oral dose 400 mg
  Peak concentration: 904.2 ± 355.6 ng/mL
[2]; single oral dose 600 mg
  Peak concentration: 975.1 ± 661.0 ng/mL
[3]; Vero-E6, MOI 0.05, 48 h
  Inhibiting rate, %: 21.73%
[3]; [15]
  inhibition at 3 µM: 21%
[3]; Severe acute respiratory syndrome coronavirus 2, Vero C1008, 48 h, read-out: Inhibiting rate, %, 30 μM, Vero-E6, MOI 0.05, 48 h
  inhibition at 30 µM: 98.9%
[4]; 5 min
  Tissue concentration, Brain: 101 ± 67
  Tissue concentration, Heart: 72 ± 47
  Tissue concentration, Kidney: 79 ± 54
  Tissue concentration, Liver: 104 ± 82
  Tissue concentration, Spleen: 48 ± 35
  Tissue concentration, Stomach: 8210 ± 5410
[4]; 15 min
  Tissue concentration, Brain: 50 ± 10
  Tissue concentration, Heart: 132 ± 69
  Tissue concentration, Kidney: 259 ± 190
  Tissue concentration, Liver: 963 ± 290
  Tissue concentration, Spleen: 519 ± 281
  Tissue concentration, Stomach: 23180 ± 10170
[4]; 360 min
  Tissue concentration, Brain: 31 ± 21
  Tissue concentration, Heart: 41 ± 28
  Tissue concentration, Kidney: 58 ± 21
  Tissue concentration, Liver: 262 ± 175
  Tissue concentration, Spleen: 143 ± 51
  Tissue concentration, Stomach: 52750 ± 3059
[5]; oral 18 mg/kg
  AUC0-t: 1956 ± 895 ngh/mL
  AUC0-∞: 2224 ± 1058 ngh/mL
  Cmax: 1002 ± 298 ng/mL
  Tmax: 0.28 h
  t1/2: 3.6 ± 1.2 h
[5]; oral 54 mg/kg
  AUC0-t: 6790 ± 2749 ngh/mL
  AUC0-∞: 7558 ± 2877 ngh/mL
  Cmax: 4711 ± 2361 ng/mL
  Tmax: 0.18 h
  t1/2: 3.3 ± 0.7 h

## CNCc1ccc(-c2cc3cc(F)cc(C(N)=O)c3o2)cc1.Cl [CVL218, mefuparib hydrochloride]
[6]
  Body weight versus control group: no significant difference in body weight
[7]
  Tissue/serum drug concentration ratio, Brain: 9.728 ± 1.130
  Tissue/serum drug concentration ratio, Heart: 16.514 ± 1.348
  Tissue/serum drug concentration ratio, Kidney: 41.307 ± 5.391
  Tissue/serum drug concentration ratio, Liver: 46.780 ± 5.215
  Tissue/serum drug concentration ratio, Spleen: 54.897 ± 6.250
  Tissue/serum drug concentration ratio, Stomach: 22.133 ± 7.130
[7]; hydrochloride
  Tissue/serum drug concentration ratio, Lung: 188 and 188.364 ± 28.467
[7]; 180 min
  Tissue concentration, Brain: 3580 ± 416
  Tissue concentration, Heart: 6077 ± 496
  Tissue concentration, Kidney: 15201 ± 1984
  Tissue concentration, Liver: 17215 ± 1919
  Tissue concentration, Lung: 69318 ± 10476
  Tissue concentration, Spleen: 20202 ± 2300
  Tissue concentration, Stomach: 8145 ± 2624
[7]; 360 min
  Tissue concentration, Brain: 998 ± 220
  Tissue concentration, Heart: 1390 ± 292
  Tissue concentration, Kidney: 3903 ± 594
  Tissue concentration, Liver: 2187 ± 859
  Tissue concentration, Lung: 18858 ± 2365
  Tissue concentration, Spleen: 6358 ± 1058
  Tissue concentration, Stomach: 1871 ± 813
[7]; 480 min
  Tissue concentration, Brain: 317 ± 55
  Tissue concentration, Heart: 275 ± 80
  Tissue concentration, Kidney: 993 ± 327
  Tissue concentration, Liver: 213 ± 88
  Tissue concentration, Lung: 4183 ± 847
  Tissue concentration, Spleen: 1475 ± 324
  Tissue concentration, Stomach: 569 ± 293
[3]; Vero-E6, MOI 0.05, 48 h, hydrochloride
  Inhibiting rate, %: 35% and 35.16%
[3]; different batches, hydrochloride, read-out: EC50 against SARS-CoV-2
  EC50: 7.67 µM and 5.12 µM
[8]
  Body weight versus control group: no significant difference in body weight
[9]; 1 μM
  Reduction of CpG-induced IL-6 production: 50%
[9]; 3 μM
  Reduction of CpG-induced IL-6 production: 72.65%
[10]; oral 20 mg/kg, Female
  AUC0-t: 2196 ± 228 ngh/mL
  AUC0-∞: 2222 ± 241 ngh/mL
  Cmax: 502 ± 80 ng/mL
  MRT0-∞: 3.16 h
  Tmax: 3.0 h
  t1/2: 1.1 ± 0.16 h
[10]; oral 20 mg/kg, Male
  AUC0-t: 1070 ± 176 ngh/mL
  AUC0-∞: 1111 ± 192 ngh/mL
  Cmax: 234 ± 35 ng/mL
  MRT0-∞: 3.91 h
  Tmax: 4.0 h
  t1/2: 1.19 ± 0.09 h
[10]; oral 20 mg/kg, Total
  AUC0-t: 1633 ± 643 ngh/mL
  AUC0-∞: 1666 ± 639 ngh/mL
  Cmax: 368 ± 157 ng/mL
  MRT0-∞: 3.54 h
  Tmax: 3.5 h
  t1/2: 1.15 ± 0.13 h
[10]; oral 40 mg/kg, Female
  AUC0-t: 5220 ± 1113 ngh/mL
  AUC0-∞: 5242 ± 1115 ngh/mL
  Cmax: 940 ± 117 ng/mL
  MRT0-∞: 4.05 h
  Tmax: 2.0 h
  t1/2: 1.29 ± 0.21 h
[10]; oral 40 mg/kg, Male
  AUC0-t: 2802 ± 967 ngh/mL
  AUC0-∞: 2830 ± 983 ngh/mL
  Cmax: 510 ± 259 ng/mL
  MRT0-∞: 4.51 h
  Tmax: 3.0 h
  t1/2: 1.3 ± 0.33 h
[10]; oral 40 mg/kg, Total
  AUC0-t: 4011 ± 1620 ngh/mL
  AUC0-∞: 4036 ± 1620 ngh/mL
  Cmax: 725 ± 296 ng/mL
  MRT0-∞: 4.28 h
  Tmax: 2.5 h
  t1/2: 1.3 ± 0.24 h
[11]; 25 μM
  Cytopathic effect in infected cells: No apparent cytopathic effect
[11]; 5, 15, 25 μM, 14 h after infection, versus DMSO treated cells
  Expression of the viral nucleoprotein (NP): significantly lower
[12]
  Antiviral activity, after the virus enters: significantly inhibit the replication after viral entry
  Antiviral activity, when the virus enters: partially antagonize viral entry
[12]; versus DMSO
  Antiviral activity, whole process treatment: stronger antiviral activity

## O=C(c1cc(Cc2n[nH]c(=O)c3ccccc23)ccc1F)N1CCN(C(=O)C2CC2)CC1 [Olaparib, olaparib, reference compound]
[3]; Severe acute respiratory syndrome coronavirus 2, Vero C1008, 48 h, 3.2 μM, Vero-E6, MOI 0.05, 48 h, different batches, read-out: Inhibiting rate, %
  inhibition at 3.2 µM: ~12%
[13]
  CC50 at 48 h: 100 to 300 µM

## CCOC(=O)C1=C[C@@H](OC(CC)CC)[C@H](NC(C)=O)[C@@H](N)C1 [Oseltamivir]
[3]; [15]
  inhibition at 3 µM: -13.5%

## CC(=O)N[C@H]1[C@H]([C@H](O)[C@H](O)CO)OC(C(=O)O)=C[C@@H]1N=C(N)N [Zanamivir]
[3]; [15]
  inhibition at 3 µM: -10.7%

## CNCc1ccc(-c2cc3cc(F)cc(C(N)=O)c3o2)cc1 [mefuparib hydrochloride]
[13]
  CC50 at 48 h: ~92 µM
[14]
  Inhibitory effect on the cells (toxicity): no inhibitory effect on the cells
